Experiments:
HCT116 = experiment: Cell viability assay (resazurin), HCT116; type: cell-based; conditions: Homo sapiens, HCT-116; HCT116 colorectal carcinoma cells
Procedure: (§1) Protocol for Cell Viability Assay in Different Cell Lines for CHK-1 Inhibitors:
(§2) Cells were allowed to grow at 37° C. for 24 hr (adherent cells) in 5% CO2 (culture conditions) in a Nuaire incubator (humidified). Following 24 hr (adherent cells), serially diluted compounds (100 μl) were added to the culture plate (immediately after plating in case of suspension cells) and the cultures were further incubated in culture conditions for 72-144 hr depending on the cell type. Experiment was terminated at the completion of respective incubation with drug by replacing the medium with 100 μl of 1 mM of resazurin (R7017; Sigma) prepared in culture medium and the plates were further incubated in culture conditions for 4 hr. In case of 144 hr incubation with the drug, the drug was replenished once with fresh medium after 72 hr. Fluorescence was then measured using a multimodal plate reader (Biotek Synergy Neo) at an excitation wavelength of 535 nm and emission wavelength of 590 nm to obtain relative fluorescence units. Data analysis was done by subtracting the background fluorescence (only medium blank) value from each reading and then normalizing with the vehicle control (DMSO treated cells) to obtain percent survival/proliferation. Percent survival at different doses was used to calculate IC50 by fitting the curve to the “four-parameter variable slope logistic model” using Prism Graph Pad.

HT-29 = experiment: Cell viability assay (resazurin), HT-29; type: cell-based; conditions: Homo sapiens; HT-29 colon cancer cells
Procedure: as §1, §2

MiaPaCa-2 = experiment: Cell viability assay (resazurin), MiaPaCa-2; type: cell-based; conditions: Homo sapiens, MIA PaCa-2; MiaPaCa-2 pancreatic cancer cells
Procedure: as §1, §2

THP1 = experiment: Cell viability assay (resazurin), THP1; type: cell-based; conditions: Homo sapiens, THP-1; THP1 peripheral blood cells
Procedure: as §1, §2

MDA_MB-231 = experiment: Cell viability assay (resazurin), MDA_MB-231; type: cell-based; conditions: Homo sapiens, MDA-MB-231; MDA_MB-231 TNBC cells
Procedure: as §1, §2

A549 = experiment: Cell viability assay (resazurin), A549; type: cell-based; conditions: Homo sapiens; A549 lung epithelial carcinoma cells
Procedure: as §1, §2

CHK-1 kinase = CHK-1 kinase (Homo sapiens (Human), UniProt O14757); experiment: CHK-1 Kinase Assay (Z-LYTE based TR-FRET); type: biochemical; conditions: for inhibition at 0.1 µM: 0.1 μM compound, read-out: % Inhibition of CHK-1 enzyme activity @ 0.1 μM; for inhibition at 1 µM: 1 μM compound, read-out: % Inhibition of CHK-1 enzyme activity @ 1 μM; for inhibition at 5 µM: 5 μM compound, read-out: % Inhibition of CHK-1 enzyme activity @ 5 μM
Procedure: IC50 values of compounds for inhibition of CHK-1 kinase or percent inhibition at defined concentrations were determined by Z-LYTE™ based TR-FRET assay. Kinase reactions were performed in a 10 μL volume in low-volume 384-well plates. The concentration of substrate (Ser Thr 19) was maintained at 2 μM in the assay, and the kinase reaction buffer consisted of 50 mM HEPES pH 7.5, 0.01% BRIJ-35, 10 mM MgCl2, 1 mM EGTA, 2 mM DTT. Serially diluted compounds (3-fold) in DMSO (0.5% in final reaction) were incubated with cocktail of CHK-1 kinase (5 ng/ml; Cat #P3040, ThermoFisher), substrate Ser Thr 19, (2 μM; Cat #PV4529, ThermoFisher), ATP (53 μM; Cat #PV3227, ThermoFisher) and buffer. Kinase reactions were allowed to proceed for 1 hour at room temperature after which 5 μL of a 1:256 dilution of Development Reagent A was added. The plate was allowed to incubate at room temperature for 60 minutes before being read on a BMG Pherastar plate reader using the Z-LYTE™ filter block for Z-LYTE™ TR-FRET. The resulting TR-FRET emission ratio was used to calculate percent inhibition by normalizing with the control using the following formula: — [% Inhibition=1−{(% Phosphorylationsample/% Phosphorylationcontrol (0% Inhibition)}·100] For calculation of IC50, the percent inhibition obtained was plotted against the concentration of inhibitor, and the data was fit to a sigmoidal dose-response curve with a variable slope. The IC50 was calculated from the curve.

MV-4-11 = experiment: Cell viability assay (resazurin), MV-4-11; type: cell-based; conditions: Homo sapiens, MV4-11; MV-4-11 peripheral blood cells
Procedure: as §1, §2

AsPC-1 = experiment: Cell viability assay (resazurin), AsPC-1; type: cell-based; conditions: Homo sapiens, ASPC1; AsPC-1 pancreatic cancer cells
Procedure: as §1, §2

Panc-10.05 = experiment: Cell viability assay (resazurin), Panc-10.05; type: cell-based; conditions: Homo sapiens, Panc1005; Panc-10.05 cells
Procedure: as §1, §2

CHK-2 kinase = CHK-2 kinase (Homo sapiens (Human), UniProt O96017); experiment: CHK-2 Kinase Assay (Z-LYTE based TR-FRET); type: biochemical; conditions: for inhibition at 0.1 µM: 0.1 μM compound, read-out: % Inhibition of CHK-2 enzyme activity @ 0.1 μM; for inhibition at 1 µM: 1 μM compound, read-out: % Inhibition of CHK-2 enzyme activity @ 1 μM
Procedure: IC50 values of compounds for inhibition of CHK-2 kinase or percent inhibition at defined concentrations were determined by Z-LYTE™ based TR-FRET assay. Kinase reactions were performed in a 10 μL volume in low-volume 384-well plates. The concentration of substrate (Ser Thr 07) was maintained at 1 μM in the assay, and the kinase reaction buffer consisted of 50 mM HEPES pH 7.5, 0.01% BRIJ-35, 10 mM MgCl2, 1 mM EGTA. Serially diluted compounds (3-fold) in DMSO (0.5% in final reaction) were incubated with cocktail of CHK2 kinase (5 ng/ml; Cat #PV3367, ThermoFisher), substrate Ser Thr 07, (1 μM; Cat #PV3208, ThermoFisher), ATP (84 μM; Cat #PV3227, ThermoFisher) and buffer. Kinase reactions were allowed to proceed for 1 hour at room temperature after which 5 μL of a 1:45000 dilution of Development Reagent A was added. The plate was allowed to incubate at room temperature for 60 minutes before being read on a BMG Pherastar plate reader using the Z-LYTE™ filter block for Z-LYTE™ TR-FRET.
The resulting TR-FRET emission ratio was used to calculate percent inhibition by normalizing with the control using the following formula: — [% Inhibition=1−{(% Phosphorylationsample/% Phosphorylationcontrol (0% inhibition)}·100]
For calculation of IC50, the percent inhibition obtained was plotted against the concentration of inhibitor, and the data was fit to a sigmoidal dose-response curve with a variable slope. The IC50 was calculated from the curve.

CHK-1 kinase, sequence (O14757 whole entry): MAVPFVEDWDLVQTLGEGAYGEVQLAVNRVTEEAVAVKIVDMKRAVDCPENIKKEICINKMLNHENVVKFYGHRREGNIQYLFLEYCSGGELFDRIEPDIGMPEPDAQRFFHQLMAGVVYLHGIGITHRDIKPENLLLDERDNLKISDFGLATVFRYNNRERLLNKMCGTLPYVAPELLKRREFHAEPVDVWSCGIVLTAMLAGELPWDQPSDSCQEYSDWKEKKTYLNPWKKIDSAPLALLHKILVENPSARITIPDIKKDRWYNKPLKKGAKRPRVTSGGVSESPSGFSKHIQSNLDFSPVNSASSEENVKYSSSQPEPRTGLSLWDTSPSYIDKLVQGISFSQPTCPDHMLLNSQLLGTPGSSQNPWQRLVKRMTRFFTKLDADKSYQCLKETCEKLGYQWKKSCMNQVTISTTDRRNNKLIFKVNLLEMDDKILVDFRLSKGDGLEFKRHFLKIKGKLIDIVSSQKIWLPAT
CHK-2 kinase, sequence (O96017 whole entry): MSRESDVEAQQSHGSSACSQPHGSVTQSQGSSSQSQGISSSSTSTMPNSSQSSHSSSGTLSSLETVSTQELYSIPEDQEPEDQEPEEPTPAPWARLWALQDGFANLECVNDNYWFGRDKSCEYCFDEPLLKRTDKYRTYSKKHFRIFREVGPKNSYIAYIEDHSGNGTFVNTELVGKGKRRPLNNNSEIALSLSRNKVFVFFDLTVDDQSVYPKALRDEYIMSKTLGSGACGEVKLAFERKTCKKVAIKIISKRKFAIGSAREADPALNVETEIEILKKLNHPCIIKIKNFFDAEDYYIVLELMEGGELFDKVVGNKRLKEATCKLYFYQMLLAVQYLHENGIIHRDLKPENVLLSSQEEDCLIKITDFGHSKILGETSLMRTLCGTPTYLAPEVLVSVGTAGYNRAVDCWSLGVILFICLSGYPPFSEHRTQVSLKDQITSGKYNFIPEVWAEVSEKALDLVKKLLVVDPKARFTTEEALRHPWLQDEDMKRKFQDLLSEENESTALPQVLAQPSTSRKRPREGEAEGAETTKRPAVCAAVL

SMILES	IC50 (HCT116) [µM]	IC50 (HT-29) [µM]	IC50 (MiaPaCa-2) [µM]	IC50 (THP1) [µM]	IC50 (MDA_MB-231) [µM]	IC50 (A549) [µM]	inhibition at 0.1 µM (CHK-1 kinase) [%]	inhibition at 1 µM (CHK-1 kinase) [%]	inhibition at 5 µM (CHK-1 kinase) [%]	IC50 (MV-4-11) [µM]	IC50 (AsPC-1) [µM]	IC50 (Panc-10.05) [µM]	IC50 (CHK-1 kinase) [µM]	inhibition at 0.1 µM (CHK-2 kinase) [%]	inhibition at 1 µM (CHK-2 kinase) [%]
CNC(=O)c1nnc(Nc2cnc(C#N)cn2)cc1NC[C@@H]1CNCCO1 (stereo in doubt) [1.34, 6-(5-cyanopyrazin-2-ylamino)-N-methyl-4-(morpholin-2-ylmethylamino)pyridazine-3-carboxamide]	27.9	16.9	10.8	9.79	12.4	> 30	77	96	99	7	13.2	–	–	–	–
CNC(=O)c1nnc(Nc2cnc(C#N)cn2)cc1NC[C@H]1CNCCO1 (stereo in doubt) [1.35, 6-(5-cyanopyrazin-2-ylamino)-N-methyl-4-(morpholin-2-ylmethylamino)pyridazine-3-carboxamide]	17.2	14.5	10.2	6.23	15.5	> 30	86	100	100	5.38	11.6	–	–	–	–
N#Cc1cnc(Nc2cc(NCC3CCNCC3)c(-c3ccccc3)nn2)cn1 [1.1, 5-((6-phenyl-5-((piperidin-4-ylmethyl)amino)pyridazin-3-yl)amino)pyrazine-2-carbonitrile]	> 30	–	–	–	–	–	–	15	32	–	–	–	–	–	–
N#Cc1cnc(Nc2cc(NCC3CNCCO3)c(C(N)=O)nn2)cn1 (stereo not drawn) [1.2, 6-((5-cyanopyrazin-2-yl)amino)-4-((morpholin-2-ylmethyl)amino)pyridazine-3-carboxamide]	> 30	> 30	> 30	> 30	> 30	> 30	–	96	100	–	> 30	> 30	0.07	8.28	30
N#Cc1cnc(Nc2cc(NCC3CCNCC3)c(C(N)=O)nn2)cn1 [1.3, 6-((5-cyanopyrazin-2-yl)amino)-4-((piperidin-4-ylmethyl)amino)pyridazine-3-carboxamide]	> 30	> 30	> 30	> 30	> 30	> 30	–	93	98	–	> 30	> 30	0.092	12.1	36.7
N#Cc1cnc(Nc2cc(NCC3CNCCO3)c(C(F)(F)F)nn2)cn1 (stereo not drawn) [1.7, 2-((6-(5-cyanopyrazin-2-ylamino)-3-(trifluoromethyl)pyridazin-4-ylamino)methyl)morpholin-4-ium 2,2,2-trifluoroacetate]	–	> 30	> 30	> 30	–	–	–	–	–	–	–	–	–	–	–
CNC(=O)c1nnc(Nc2cnc(C#N)cn2)cc1NCC1CNCCO1 (stereo not drawn) [1.11, 6-(5-cyanopyrazin-2-ylamino)-N-methyl-4-(morpholin-2-ylmethylamino)pyridazine-3-carboxamide]	17.2	14.9	13.4	4.24	13	11.4	91	100	100	5.4	6.41	–	–	–	–
N#Cc1cnc(Nc2cc(NCC3CNCCO3)c(C(=O)NC3CC3)nn2)cn1 (stereo not drawn) [1.12, 6-(5-cyanopyrazin-2-ylamino)-N-cyclopropyl-4-(morpholin-2-ylmethylamino)pyridazine-3-carboxamide]	–	> 30	23.2	11.7	–	–	63	96	98	–	12.9	–	–	–	–
CNC(=O)c1nnc(Nc2cnc(C#N)cn2)cc1NCC1CCN(C)CC1 [1.19, 6-(5-cyanopyrazin-2-ylamino)-N-methyl-4-((1-methylpiperidin-4-yl)methylamino)pyridazine-3-carboxamide]	–	–	26.2	13.1	–	–	49	90	99	–	8.45	–	–	–	–
CN1CCC(Nc2cc(Nc3cnc(C#N)cn3)nnc2C(N)=O)CC1 [1.20, 6-(5-cyanopyrazin-2-ylamino)-4-(1-methylpiperidin-4-ylamino)pyridazine-3-carboxamide]	–	–	23.5	21.8	–	–	61	93	100	–	11.9	–	–	–	–

From patent US12428395B2, “Heterocyclic compounds as kinase inhibitor and uses thereof” (SPEROGENIX THERAPEUTICS LIMITED, priority 2019, dated 2025)
